The values below come from article PMC3591448, “Profile of the GSK Published Protein Kinase Inhibitor Set Across ATP-Dependent and-Independent Luciferases: Implications for Reporter-Gene Assays” (PLoS ONE, 2013).

Where two headings read alike, the source gives them in different places.

For orientation: IC50 means the concentration that inhibits the measured activity by half.

Assay [1] deals with firefly luciferase, Photinus pyralis (FLuc) (Photinus pyralis, UniProt P08659). In words: biochemical. It is filed as biochemical. The following applies: for FLuc Parameters Hill Coef: Hill equation fit of CRC; for Emax: response relative to PTC124 control inhibitor, negative = inhibition, read-out: FLuc Parameters Efficacy. As for the experimental part: The bioluminescence outputs were measured by an EnVision reader (PerkinElmer, Wellesley, MA). Due to the relatively short luminescence duration of the RLuc assay, dispense time constants were set to match closely to the read time of the plate reader. As a result, each individual well was read with approximately the same time delay from reagent dispense to signal acquisition. See Table 1 for the 1536-well assay protocols.
Sequence of firefly luciferase, Photinus pyralis (FLuc) (P08659 whole entry): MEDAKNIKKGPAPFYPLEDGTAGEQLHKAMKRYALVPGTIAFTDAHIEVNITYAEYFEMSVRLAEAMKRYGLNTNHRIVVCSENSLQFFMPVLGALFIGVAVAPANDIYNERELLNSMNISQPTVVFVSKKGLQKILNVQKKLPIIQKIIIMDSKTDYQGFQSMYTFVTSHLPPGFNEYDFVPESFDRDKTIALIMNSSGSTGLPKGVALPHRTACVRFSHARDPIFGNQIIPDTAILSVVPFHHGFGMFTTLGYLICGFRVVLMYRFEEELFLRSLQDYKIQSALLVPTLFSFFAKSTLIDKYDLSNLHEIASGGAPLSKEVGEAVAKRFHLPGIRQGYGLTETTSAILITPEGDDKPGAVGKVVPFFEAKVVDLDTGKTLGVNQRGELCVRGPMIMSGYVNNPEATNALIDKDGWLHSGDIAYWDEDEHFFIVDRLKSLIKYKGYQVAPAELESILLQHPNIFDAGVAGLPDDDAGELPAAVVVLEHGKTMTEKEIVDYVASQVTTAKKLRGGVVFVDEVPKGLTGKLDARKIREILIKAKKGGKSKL
(§1) Data from each assay was normalized plate-wise to corresponding intraplate controls as described previously, [17]. The same control data sets were also used for the calculation of Z′ factors from each assay. In all assays, wells containing DMSO were used as no-response controls. For the FLuc enzymatic assay, each compound-treated well on the plate was normalized to the average readings of n = 24 PTC124 treated wells and n = 48 DMSO wells from the same plate. Wells were scaled to a full range of DMSO and zero, and then normalized using the maximum response observed in the screen as 100% activity. For the RLuc enzymatic assay, n = 24 BTS treated wells for the positive control, n = 48 DMSO. MSR values were calculated using the cumulative potency differences of the de-interleaved duplicate control titrations from each plate as previously described. The normalized data from each assay plate set was corrected using DMSO-only treated assay plates read at the start and end of each assay run, and the resulting inter-plate titration data fit, using in-house software, to the standard Hill equation and dose-response curves automatically classified as described previously.
(§2) The curve classification scheme for assignment of resulting curve-fit data into CRC classes was according to Inglese et al. as follows: class 1 curves (far left) display two asymptotes, an inflection point, and r^2≥0.9; subclasses 1a vs. 1b are differentiated by full (>80%) vs. partial (≤80%) response. Class 2 curves (second from left) display a single left-hand asymptote and inflection point; subclasses 2a (or 2.1) and 2b (2.2) are differentiated by a max response and r^2, >80% and >0.9 or <80% and <0.9, respectively. Class 3 curves (second from right) have a single left-hand asymptote, no inflection point, and a response >3SD from the mean activity of the sample field.

Assay [2] has as its target T1, Renilla luciferase (RLuc) (Renilla reniformis, UniProt P27652).
T1 sequence (P27652 1-311): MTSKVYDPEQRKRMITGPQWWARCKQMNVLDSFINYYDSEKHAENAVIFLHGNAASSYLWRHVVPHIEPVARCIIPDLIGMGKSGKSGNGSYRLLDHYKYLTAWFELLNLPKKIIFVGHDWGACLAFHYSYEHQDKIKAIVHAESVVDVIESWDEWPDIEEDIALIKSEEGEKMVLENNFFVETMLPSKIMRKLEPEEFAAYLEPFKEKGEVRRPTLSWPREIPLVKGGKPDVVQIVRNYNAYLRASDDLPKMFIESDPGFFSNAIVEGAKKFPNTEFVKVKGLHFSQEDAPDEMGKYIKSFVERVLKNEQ
Kind of assay: RLuc enzymatic assay (purified enzyme, qHTS, 1536-well). It is filed as biochemical. The following applies: 1 nM RLuc, 5 µM coelenterazine-H. As for the experimental part:
1 µL of purified luciferase was then dispensed into each well for final concentrations 10 nM FLuc or 1 nM RLuc. The bioluminescence outputs were measured by an EnVision reader (PerkinElmer, Wellesley, MA). Due to the relatively short luminescence duration of the RLuc assay, dispense time constants were set to match closely to the read time of the plate reader. As a result, each individual well was read with approximately the same time delay from reagent dispense to signal acquisition. See Table 1 for the 1536-well assay protocols.
as §1, §2
Background: qHTS replaces the single test concentration by a dilution series.

Assay [3] concerns RHO. Set-up: method as in Stavenger, R. A., et al. 2007. The following applies: ref Stavenger, R. A., et al. 2007; read-out: PKI IC50 (µM), RHO; cited from earlier work.
The subject of assay [4] is CDK2. The following applies: ref Bramson, H. N., et al., 2001; read-out: PKI IC50 (µM), CDK2; cited from earlier work.
The test system of assay [5] is VEGFR2. The following applies: ref Harris, P.A., et al. 2005; read-out: PKI IC50 (µM), VEGFR2; cited from earlier work.
The subject of assay [6] is CDK. Set-up: method as in Stevens, K. L., et al. 2008. The following applies: ref Stevens, K. L., et al. 2008; read-out: PKI IC50 (µM), CDK; cited from earlier work.
Assay [7] has as its system p38. Set-up: method as in Angell, R.M., et al. 2008. The following applies: ref Angell, R.M., et al. 2008; read-out: PKI IC50 (µM), p38; cited from earlier work.
The subject of assay [8] is VEGFR. Set-up: method as in Sammond, D.M., et al. 2005. The following applies: ref Sammond, D.M., et al. 2005; read-out: PKI IC50 (µM), VEGFR; cited from earlier work.
The mark [9] stands for this setting: 10 nM FLuc, 10 µM D-luciferin, 10 µM ATP, read-out: FLuc Parameters IC50.
Setting [10] is: Figure 4b, read-out: FLuc (IC50).

As for `CCn1c(-c2nonc2N)nc2cnc(Oc3cccc(NC(=O)c4ccc(N(C)C)cc4)c3)cc21` [GSK248233A], the IC50 in assay [1] (setting [9]) was 1.03 µM; in assay [1] (setting [10]), 1 µM; in assay [1] (Table 3, read-out: FLuc IC50), 1.03 µM; in assay [3], 0.002 µM. The “FLuc Parameters Hill Coef” value in assay [1] came out at 0.9. In addition, in assay [1], the Emax came out at 98.9%. Also, the “RLuc Curve Class” value in assay [2] came to 4.

For the molecule `C/C(Nc1ccc(S(N)(=O)=O)cc1)=C1/C(=O)Nc2ccccc21` [GW335962X], the IC50 in assay [1] (setting [9]) is 3.66 µM; in assay [1] (Table 3, read-out: FLuc IC50), 3.66 µM; in assay [4] it was 0.36 µM. The “FLuc Parameters Hill Coef” value in assay [1] turned out to be 1.51. Further, in assay [1], the Emax was determined as 68.8%. The “RLuc Curve Class” value in assay [2] amounted to 4.

Take `COc1ccccc1Nc1ncc(-c2ccccc2)o1` [GW577921A]: the 50% inhibitory concentration (IC50) in assay [1] (setting [9]) is 1.03 µM; in assay [1] (Table 3, read-out: FLuc IC50) it was 1.03 µM; in assay [5] it was 0.38 µM. Besides, the “FLuc Parameters Hill Coef” value in assay [1] was 1. Further, in assay [1], the Emax is 102%. Moreover, the “RLuc Curve Class” value in assay [2] worked out at 4.

For the molecule `c1cc(-c2cnn3nc(N4CCOCC4)ccc23)nc(NC2CC2)n1` [GW708336X], the IC50 in assay [1] (setting [9]) is 4.61 µM; in assay [1] (Figure 2b, representative structures of clusters, read-out: FLuc IC50), 5 µM; in assay [1] (Table 3, read-out: FLuc IC50), 4.61 µM; in assay [6] it was 0.4 µM. For the same molecule, in assay [1], the “FLuc Parameters Hill Coef” value was found to be 1. Also, in assay [1], the Emax was 108%. Also, the “RLuc Curve Class” value in assay [2] is 4.

As to `O=C(NCC1CC1)c1ccc(-c2cccc(C(=O)NC3CC3)c2)cc1` [GW806776X], the IC50 in assay [1] (setting [9]) was 9.19 µM; in assay [1] (Table 3, read-out: FLuc IC50) it was 9.19 µM; in assay [7] it was 0.075 µM. Besides, the “FLuc Parameters Hill Coef” value in assay [1] turned out to be 1.51. In addition, the Emax in assay [1] was determined as 35.2%.

With `CN(c1ccc(NC(=O)Nc2c(Cl)cccc2Cl)cc1)c1ccnc(Nc2cccc(CS(C)(=O)=O)c2)n1` [GW809897X], the IC50 in assay [1] (setting [9]) was 0.58 µM; in assay [1] (setting [10]), 0.56 µM; in assay [1] (Table 3, read-out: FLuc IC50) it was 0.58 µM; in assay [8], 0.065 µM. Besides, the “FLuc Parameters Hill Coef” value in assay [1] is 1.11. The Emax in assay [1] came to 109%. The “RLuc Curve Class” value in assay [2] is recorded as 4.
